From the supplement of paper PMC8967900

How the values were obtained:
Assay in all cases: selective drug sensitivity score (sDSS, relative to normal bone marrow) (sDSS (score)); higher = more potent and effective on the cell line relative to normal bone marrow cells
Settings in all cases: 72 h
ALL-SIL = system: ALL-SIL
COG-LL-317 = system: COG-LL-317
COG-LL-332h = system: COG-LL-332h
DND-41 = system: DND-41
HAL-01 = system: HAL-01
JURKAT = system: JURKAT
KASUMI-10 = system: KASUMI-10
KASUMI-2 = system: KASUMI-2
KASUMI-9 = system: KASUMI-9
KOPN-8 = system: KOPN-8
LC4-1 = system: LC4-1
MHH-CALL-2 = system: MHH-CALL-2
MHH-CALL-3 = system: MHH-CALL-3
MHH-CALL-4 = system: MHH-CALL-4
MOLT-4 = system: MOLT-4
NALL-1 = system: NALL-1
NALM-6 = system: NALM-6
PEER = system: PEER
PF-382 = system: PF-382
REH = system: REH
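Note: ALL cell lines in 384-well plates, five doses spanning 10,000-fold, each plate scaled between vehicle and 100 µmol/L benzalkonium chloride controls, sDSS an adapted area-under-curve metric.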

Cn1c(Nc2ccc(C(F)(F)F)cc2)nc2cc(Oc3ccnc(-c4ncc(C(F)(F)F)[nH]4)c3)ccc21 [NVP-RAF265] (top concentration 1000 nM)
selective drug sensitivity score (ALL-SIL): 8.28 | selective drug sensitivity score (COG-LL-317): 7.28 | selective drug sensitivity score (COG-LL-332h): 3.28 | selective drug sensitivity score (DND-41): 3.58 | selective drug sensitivity score (HAL-01): 5.68 | selective drug sensitivity score (JURKAT): 2.88 | selective drug sensitivity score (KASUMI-10): 6.08 | selective drug sensitivity score (KASUMI-2): -0.22 | selective drug sensitivity score (KASUMI-9): 4.48 | selective drug sensitivity score (KOPN-8): 4.18 | selective drug sensitivity score (LC4-1): 7.48 | selective drug sensitivity score (MHH-CALL-2): 12 | selective drug sensitivity score (MHH-CALL-3): 7.68 | selective drug sensitivity score (MHH-CALL-4): 7.48 | selective drug sensitivity score (MOLT-4): 3.48 | selective drug sensitivity score (NALL-1): 2.88 | selective drug sensitivity score (NALM-6): -0.22 | selective drug sensitivity score (PEER): 9.78 | selective drug sensitivity score (PF-382): 1.48 | selective drug sensitivity score (REH): 2.18

CC1(C)CC[C@]2(NC(=O)C(C)(F)F)CC[C@]3(C)[C@H](C(=O)C=C4[C@@]5(C)C=C(C#N)C(=O)C(C)(C)[C@@H]5CC[C@]43C)[C@@H]2C1 [Omaveloxolone] (top concentration 10000 nM)
selective drug sensitivity score (ALL-SIL): 1.28 | selective drug sensitivity score (COG-LL-317): 4.88 | selective drug sensitivity score (COG-LL-332h): 3.48 | selective drug sensitivity score (DND-41): 3.98 | selective drug sensitivity score (HAL-01): 3.58 | selective drug sensitivity score (JURKAT): 0.88 | selective drug sensitivity score (KASUMI-10): 2.58 | selective drug sensitivity score (KASUMI-2): 6.38 | selective drug sensitivity score (KASUMI-9): 1.88 | selective drug sensitivity score (KOPN-8): 8.68 | selective drug sensitivity score (LC4-1): 7.38 | selective drug sensitivity score (MHH-CALL-2): 0.58 | selective drug sensitivity score (MHH-CALL-3): 10.1 | selective drug sensitivity score (MHH-CALL-4): 1.28 | selective drug sensitivity score (MOLT-4): 2.18 | selective drug sensitivity score (NALL-1): 3.98 | selective drug sensitivity score (NALM-6): 2.58 | selective drug sensitivity score (PEER): 4.38 | selective drug sensitivity score (PF-382): 1.08 | selective drug sensitivity score (REH): 2.58

CC(C)c1cc(C(=O)N2Cc3ccc(CN4CCN(C)CC4)cc3C2)c(O)cc1O [Onalespib] (top concentration 2500 nM)
selective drug sensitivity score (ALL-SIL): 4.52 | selective drug sensitivity score (COG-LL-317): 11.5 | selective drug sensitivity score (COG-LL-332h): 7.62 | selective drug sensitivity score (DND-41): 4.62 | selective drug sensitivity score (HAL-01): 1.82 | selective drug sensitivity score (JURKAT): -1.18 | selective drug sensitivity score (KASUMI-10): 3.92 | selective drug sensitivity score (KASUMI-2): 7.72 | selective drug sensitivity score (KASUMI-9): -2.18 | selective drug sensitivity score (KOPN-8): 6.82 | selective drug sensitivity score (LC4-1): 3.22 | selective drug sensitivity score (MHH-CALL-2): -1.28 | selective drug sensitivity score (MHH-CALL-3): 8.42 | selective drug sensitivity score (MHH-CALL-4): -0.48 | selective drug sensitivity score (MOLT-4): 5.92 | selective drug sensitivity score (NALL-1): -4.68 | selective drug sensitivity score (NALM-6): 5.52 | selective drug sensitivity score (PEER): 0.52 | selective drug sensitivity score (PF-382): 5.62 | selective drug sensitivity score (REH): -0.08

COC[C@H](NC(=O)c1cnc(C)s1)C(=O)N[C@@H](COC)C(=O)N[C@@H](Cc1ccccc1)C(=O)[C@@]1(C)CO1 [Oprozomib] (top concentration 2500 nM)
selective drug sensitivity score (ALL-SIL): -0.1 | selective drug sensitivity score (COG-LL-317): 7.9 | selective drug sensitivity score (COG-LL-332h): 10.6 | selective drug sensitivity score (DND-41): 11.1 | selective drug sensitivity score (HAL-01): -0.8 | selective drug sensitivity score (JURKAT): 0.3 | selective drug sensitivity score (KASUMI-10): 3.7 | selective drug sensitivity score (KASUMI-2): -1.1 | selective drug sensitivity score (KASUMI-9): 3.2 | selective drug sensitivity score (KOPN-8): 3 | selective drug sensitivity score (LC4-1): 3.7 | selective drug sensitivity score (MHH-CALL-2): 0.4 | selective drug sensitivity score (MHH-CALL-3): 3.3 | selective drug sensitivity score (MHH-CALL-4): 1.4 | selective drug sensitivity score (MOLT-4): 12.6 | selective drug sensitivity score (NALL-1): 0.9 | selective drug sensitivity score (NALM-6): -0.4 | selective drug sensitivity score (PEER): 12.5 | selective drug sensitivity score (PF-382): 11.3 | selective drug sensitivity score (REH): -0.4

COc1ccccc1S(=O)(=O)Nc1ccc2c(c1)CN(C)C(=O)N2 [PFI-1] (top concentration 30000 nM)
selective drug sensitivity score (ALL-SIL): 2 | selective drug sensitivity score (COG-LL-317): 2.5 | selective drug sensitivity score (COG-LL-332h): -0.5 | selective drug sensitivity score (DND-41): 2.3 | selective drug sensitivity score (HAL-01): 0.3 | selective drug sensitivity score (JURKAT): 0.8 | selective drug sensitivity score (KASUMI-10): 3.5 | selective drug sensitivity score (KASUMI-2): 2.4 | selective drug sensitivity score (KASUMI-9): 6 | selective drug sensitivity score (KOPN-8): 17.3 | selective drug sensitivity score (LC4-1): 4.2 | selective drug sensitivity score (MHH-CALL-2): 3.5 | selective drug sensitivity score (MHH-CALL-3): 5.4 | selective drug sensitivity score (MHH-CALL-4): 2.7 | selective drug sensitivity score (MOLT-4): -0.9 | selective drug sensitivity score (NALL-1): -4.1 | selective drug sensitivity score (NALM-6): 1.7 | selective drug sensitivity score (PEER): 2.4 | selective drug sensitivity score (PF-382): 1.8 | selective drug sensitivity score (REH): -0.6

NS(=O)(=O)OC[C@@H]1C[C@@H](n2ccc3c(N[C@H]4CCc5ccccc54)ncnc32)C[C@@H]1O [Pevonedistat] (top concentration 10000 nM)
selective drug sensitivity score (ALL-SIL): 13.1 | selective drug sensitivity score (COG-LL-317): 15.7 | selective drug sensitivity score (COG-LL-332h): 20.2 | selective drug sensitivity score (DND-41): 10.1 | selective drug sensitivity score (HAL-01): -3.5 | selective drug sensitivity score (JURKAT): 12.6 | selective drug sensitivity score (KASUMI-10): 19.1 | selective drug sensitivity score (KASUMI-2): 6.3 | selective drug sensitivity score (KASUMI-9): 6.2 | selective drug sensitivity score (KOPN-8): 13 | selective drug sensitivity score (LC4-1): 10 | selective drug sensitivity score (MHH-CALL-2): 10 | selective drug sensitivity score (MHH-CALL-3): 7.4 | selective drug sensitivity score (MHH-CALL-4): 11.5 | selective drug sensitivity score (MOLT-4): 14 | selective drug sensitivity score (NALL-1): 9.4 | selective drug sensitivity score (NALM-6): 12.1 | selective drug sensitivity score (PEER): 19.7 | selective drug sensitivity score (PF-382): 13.2 | selective drug sensitivity score (REH): 10.3

CCCCc1nc2cc(/C=C/C(=O)NO)ccc2n1CCN(CC)CC [Pracinostat] (top concentration 10000 nM)
selective drug sensitivity score (ALL-SIL): 5.18 | selective drug sensitivity score (COG-LL-317): 3.88 | selective drug sensitivity score (COG-LL-332h): 0.58 | selective drug sensitivity score (DND-41): 3.48 | selective drug sensitivity score (HAL-01): 1.88 | selective drug sensitivity score (JURKAT): 2.48 | selective drug sensitivity score (KASUMI-10): 6.18 | selective drug sensitivity score (KASUMI-2): 12.5 | selective drug sensitivity score (KASUMI-9): 8.18 | selective drug sensitivity score (KOPN-8): 8.68 | selective drug sensitivity score (LC4-1): 6.18 | selective drug sensitivity score (MHH-CALL-2): 8.98 | selective drug sensitivity score (MHH-CALL-3): 16.5 | selective drug sensitivity score (MHH-CALL-4): 6.28 | selective drug sensitivity score (MOLT-4): 3.48 | selective drug sensitivity score (NALL-1): 3.18 | selective drug sensitivity score (NALM-6): 2.78 | selective drug sensitivity score (PEER): 3.98 | selective drug sensitivity score (PF-382): 3.38 | selective drug sensitivity score (REH): 0.38

COc1cccc(OCCCN)c1-c1cc(Nc2cnc(C#N)cn2)n[nH]1 [Prexasertib] (top concentration 10000 nM)
selective drug sensitivity score (ALL-SIL): 20.8 | selective drug sensitivity score (COG-LL-317): 20.2 | selective drug sensitivity score (COG-LL-332h): 20.7 | selective drug sensitivity score (DND-41): 19.6 | selective drug sensitivity score (HAL-01): 19 | selective drug sensitivity score (JURKAT): 17.4 | selective drug sensitivity score (KASUMI-10): 16.1 | selective drug sensitivity score (KASUMI-2): 16.2 | selective drug sensitivity score (KASUMI-9): 20.4 | selective drug sensitivity score (KOPN-8): 20.4 | selective drug sensitivity score (LC4-1): 19.6 | selective drug sensitivity score (MHH-CALL-2): 20.1 | selective drug sensitivity score (MHH-CALL-3): 13.4 | selective drug sensitivity score (MHH-CALL-4): 11.4 | selective drug sensitivity score (MOLT-4): 20.4 | selective drug sensitivity score (NALL-1): 19.4 | selective drug sensitivity score (NALM-6): 18.4 | selective drug sensitivity score (PEER): 17.9 | selective drug sensitivity score (PF-382): 16.9 | selective drug sensitivity score (REH): 17

Cc1cn(-c2cc(NC(=O)c3ccc(C)c(Nc4nccc(-c5cnccn5)n4)c3)cc(C(F)(F)F)c2)cn1 [Radotinib] (top concentration 10000 nM)
selective drug sensitivity score (ALL-SIL): 43.3 | selective drug sensitivity score (COG-LL-317): 0 | selective drug sensitivity score (COG-LL-332h): 19.6 | selective drug sensitivity score (DND-41): 13.8 | selective drug sensitivity score (HAL-01): 0 | selective drug sensitivity score (JURKAT): 0 | selective drug sensitivity score (KASUMI-10): 0 | selective drug sensitivity score (KASUMI-2): 0 | selective drug sensitivity score (KASUMI-9): 9.2 | selective drug sensitivity score (KOPN-8): 10.3 | selective drug sensitivity score (LC4-1): 13.8 | selective drug sensitivity score (MHH-CALL-2): 10.1 | selective drug sensitivity score (MHH-CALL-3): 0 | selective drug sensitivity score (MHH-CALL-4): 0 | selective drug sensitivity score (MOLT-4): 1.2 | selective drug sensitivity score (NALL-1): 0 | selective drug sensitivity score (NALM-6): 0.9 | selective drug sensitivity score (PEER): 19.3 | selective drug sensitivity score (PF-382): 0.2 | selective drug sensitivity score (REH): 0
